From patent US7109174B2, “Anticonvulsant derivatives useful for preventing the development of type II diabetes mellitus and syndrome X” (Ortho-McNeil Pharmaceutical, Inc., priority 2000, dated 2006)

Columns and labels:
[1] = test system: Heterozygous Non-Diabetic Mice; assay: Plasma glucose, triglycerides and body weight in heterozygous non-diabetic littermates, 11 days oral dosage; assay type: in vivo; conditions: for Plasma Glucose % Change / Plasma Triglycerides % Change: versus vehicle; for Change in Body Weight / Plasma Glucose Plasma Conc. / Plasma Triglycerides Plasma Conc.: ± SEM
Description: Six to seven week old female C57 BLK SIJ-m^+/^+ Lepr^db mice (db/db) and heterozygous littermates were purchased from The Jackson Laboratory (Bar Harbor, Me.). Upon arrival the mice were quarantined for 5 days and housed in pairs in shoe-box cages containing ALPHA-dri® bedding (Shepherd Speciality Papers, Inc., Kalamazoo, Mich.). The mice were maintained at an ambient temperature of 21 to 23° C. on a 12 hour-12 hour light-dark schedule and given access to water and food ad libitum. The diet was comprised of NIH (National Institutes of Health) Rat and Mouse/Auto 6F Reduced Fat Diet No. 5K52 (PMI Nutrition International Inc., Brentwood, Mo.).
The vehicle, used as a reference and for test compounds, was 0.5% methylcellulose dissolved in water. The compounds were either fully dissolved or uniformly suspended in the vehicle when administered to the mice.
The db/db mice were randomly separated into five groups of eight, as were the heterozygous littermates. The groups were as follows: one vehicle control group and four groups that each received one of four doses of topiramate (TPM) (10, 30, 100, or 300 mg/kg, respectively). Topiramate or vehicle was administered orally by gavage once a day during the 8th hour of the light portion of the light-dark cycle.
Between 18 and 24 hours after the last dose was administered, the mice were anesthetized with CO2/O2 (70:30) and blood from the retro-orbital sinus puncture was collected into 2 mL heparinized snap-top polypropylene tubes, then placed in ice.
Plasma was separated from blood cells by centrifugation (15 minutes at 1600 g). For samples not assayed immediately, the plasma was transferred into 96-well plates and frozen at −70° C.
Glucose and triglycerides were assayed using standard procedures for blood clinical laboratories. Specifically, the samples were analyzed using an automated Hitachi 717 autoanalyzer (Boehringer Mannheim/Hitachi 717 Autoanalyzer, Boehringer Mannheim Laboratory Systems Division, Indianapolis, Ind.). A statistical analysis of data for the drug-treated groups compared to data for the vehicle group was performed using the one-way analysis of variance (ANOVA) with Dunnett's Multiple Comparisons test.
Following the procedure described above, the effect of topiramate on plasma glucose and triglyceride levels was determined for female diabetic db/db mice and littermates, following 11 days oral dosage, with results as listed in Table 3 and 4. Body weights are in Table 5. The abbreviation N represents the number of animals per study group.

[2] = test system: animal model of kindled epilepsy; conditions: cited from earlier work
ob/ob mice = ob/ob mice first study: topiramate in food for 120 days; plasma glucose, insulin, triglycerides, body weight; assay type: in vivo; conditions: for Blood concentration Glucose / Blood concentration Insulin / Blood concentration Triglycerides: mean ± SEM, N 10
Source text: It is known that ob/ob mice when allowed to eat ad libitum, develop abnormally high blood levels of insulin (hyperinsulinemia), glucose (hyperglycemia), lesions of the skin, and a high level of glycosylated hemoglobin, all of which are hallmark signs of Type II diabetes mellitus (R. R. HENRY, Ann. Intern. Med. 1996, 124, 97–103; G. W. EDELSON, Clin. Podiatr. Med. Surg. 1998, 15, 41–48; P. R. JOHNSON, M. R. GREENWOOD, B. A. HORWITZ and J. S. STERN, Annu. Rev. Nutr. 1991, 11, 325–353). Based on this knowledge of the ob/ob mouse model, two studies were designed to determine the effect of compounds of formula (I) in these mice models.
In the first study, a uniform population of mice was divided into three groups; in one group of control mice no topiramate was added to the food for the entire 120-day study period. In a second group topiramate was added to the food in amounts sufficient to give a daily dose of 20 mg/kg for 84 days, then a daily dose of 180 mg/kg for 36 days. A third group received a daily dose of 60 mg/kg for the entire 120 days. After completion of the 120-day period, the mice were sacrificed and blood was obtained and prepared for subsequent analyses of glucose, insulin and triglycerides in plasma.

[3] = test system: rodent models of epilepsy; conditions: several rodent models of epilepsy; cited from earlier work
[4] = TPM 1: 20 mg/kg/day 84 days then 180 mg/kg/day 36 days in food
[5] = TPM 2: 60 mg/kg/day 120 days in food

SMILES: CC1(C)O[C@@H]2[C@@H](CO[C@@]3(COS(N)(=O)=O)OC(C)(C)O[C@@H]23)O1 [Topiramate, 2,3:4,5-bis-O-(1-methylethylidene)-β-D-fructopyranose sulfamate]
- Plasma Glucose % Change ([1]; 10 mg/kg oral once a day): −1.2%
- Plasma Triglycerides % Change ([1]; 10 mg/kg oral once a day): −0.3%
- Change in Body Weight ([1]; 10 mg/kg oral once a day): 0.5 ± 0.2 g
- Plasma Glucose Plasma Conc. ([1]; 10 mg/kg oral once a day): 145 ± 6 mg/dL
- Plasma Triglycerides Plasma Conc. ([1]; 10 mg/kg oral once a day): 141 ± 13 mg/dL
- Plasma Glucose % Change ([1]; 30 mg/kg oral once a day): +3.8%
- Plasma Triglycerides % Change ([1]; 30 mg/kg oral once a day): −17.5%
- Change in Body Weight ([1]; 30 mg/kg oral once a day): 0.0 ± 0.3 g
- Plasma Glucose Plasma Conc. ([1]; 30 mg/kg oral once a day): 152 ± 6 mg/dL
- Plasma Triglycerides Plasma Conc. ([1]; 30 mg/kg oral once a day): 116 ± 6 mg/dL
- Plasma Glucose % Change ([1]; 100 mg/kg oral once a day): +0.8%
- Plasma Triglycerides % Change ([1]; 100 mg/kg oral once a day): −34.8%
- Change in Body Weight ([1]; 100 mg/kg oral once a day): 0.2 ± 0.2 g
- Plasma Glucose Plasma Conc. ([1]; 100 mg/kg oral once a day): 148 ± 7 mg/dL
- Plasma Triglycerides Plasma Conc. ([1]; 100 mg/kg oral once a day, P < 0.01): 92 ± 6 mg/dL
- Plasma Glucose % Change ([1]; 300 mg/kg oral once a day): −17.2%
- Plasma Triglycerides % Change ([1]; 300 mg/kg oral once a day): −1.8%
- Plasma Triglycerides Plasma Conc. ([1]; 300 mg/kg oral once a day): 138 ± 15 mg/dL
- Plasma Glucose Plasma Conc. ([1]; 300 mg/kg oral once a day, P < 0.01): 121 ± 7 mg/dL
- Change in Body Weight ([1]; 300 mg/kg oral once a day, P < 0.05): -2.2 ± 0.5 g
- seizure block [2]: effectively block seizures
- Glucose percentage difference versus control (ob/ob mice; [4]): −39%
- Insulin percentage difference versus control (ob/ob mice; [4]): −37%
- Triglycerides percentage difference versus control (ob/ob mice; [4]): −46%
- Blood concentration Glucose (ob/ob mice; [4]): 183 ± 33 mg/dL
- Blood concentration Insulin (ob/ob mice; [4]): 6.4 ± 0.7 ng/mL
- Blood concentration Triglycerides (ob/ob mice; [4]): 103 ± 5 mg/dL
- Glucose percentage difference versus control (ob/ob mice; [5]): −41%
- Insulin percentage difference versus control (ob/ob mice; [5]): −21%
- Triglycerides percentage difference versus control (ob/ob mice; [5]): −41%
- Blood concentration Glucose (ob/ob mice; [5]): 179 ± 11 mg/dL
- Blood concentration Insulin (ob/ob mice; [5]): 8.0 ± 0.9 ng/mL
- Blood concentration Triglycerides (ob/ob mice; [5]): 113 ± 8 mg/dL
- body weight (ob/ob mice; TPM 2 group (60 mg/kg/day), day 119): 62.2 ± 1.2 g
- body weight (ob/ob mice; TPM 2 group (60 mg/kg/day), day −1 (beginning of administration)): 48.4 ± 0.9 g
- Body weight gain compared with control (ob/ob mice; TPM 2 group (60 mg/kg/day), day −1 to day 119): Body weight gain for the control and TPM 2 groups from day −1 to day 119 was also similar.
- seizure block [3]: effectively block seizures
